Source: article PMC9694334, “Synthesis and Biological Evaluation of a Fused Structure of Indolizine and Pyrrolo[1,2-c]pyrimidine: Identification of Its Potent Anticancer Activity against Liver Cancer Cells” (Pharmaceuticals, 2022)

System: cleaved PARP
Test: Western blot analysis of cleaved PARP in Huh7 cells
Format: cell-based
Settings: 24 h, Figure 4F,H
Experimental: For Western blot analysis, HepG2 and Huh7 cells were lysed with RIPA buffer (50 mM Tris-HCl, PH 7.4, 1% Nonidet P-40, 0.25% sodium deoxycholate, 150 mM NaCl, 1 mM EDTA, 1 mM Na3VO4, and protease inhibitor). Lysed samples were centrifuged at 13,000 RPM for 20 min at 4 °C to remove the cell debris, and equal amounts (60 μg protein/lane) of supernatant protein were divided by 4–12% Tris Glycine Precast Gel (KOMA BIOTECH, Seoul, Korea). Then, PVDF membranes (Millipore, Billerica, MA, USA) were used to transfer the separated proteins. Membrane blocking was performed by Tris-buffered saline with 0.1% Tween 20 (TBST) containing 5% bovine serum albumin (BSA) at room temperature for 50 min. The membranes were incubated with primary antibodies overnight at 4 °C with the indicated primary antibodies: anti-cleaved PARP (BD Biosciences) and anti-β-actin (Santa Cruz Biotechnology, Dallas, TX, USA). […] After 1 h, membranes were detected by using ECL Plus Western blotting detection system (GE Healthcare, Piscataway, NJ, USA).
Figure 4 Effect of 5r on activity of caspase-3 and cleavage of PARP in HepG2 and Huh7 cells. […] (E,F) Cells were cultured with 5r at the indicated concentrations for 24 h, and expression level of PARP, cleaved-PARP and β-actin were measured by Western blot analysis. […]

N#Cc1c2c3cccn3c(-c3ccccc3O)nc2n2ccccc12 [Compound 5r, 5-(2-Hydroxyphenyl)pyrrolo[1′,2′:1,6]pyrimido[5,4-b]indolizine-12-carbonitrile]
Expression level of cleaved PARP in Huh7 cells: increased the expression level of cleaved PARP in a dose-dependent manner
